According to patent US5086042A, “Peptides with sulfate ester groups” (Fisons Corporation, priority 1989, dated 1992):
Non-standard residues stand in square brackets, D forms with d. Residues, ends and D or L forms follow the SMILES beside them. sY = N[C@@H](Cc1ccc(OS(=O)(=O)O)cc1)C(=O)O

Test system: Male Sprague-Dawley rats
Assay type: in vivo
Details: rat, intraperitoneal; for % FEEDING INHIBITION 0.5 hr / % FEEDING INHIBITION 3 hr: 30 μg/kg, vs saline controls; for % FEEDING INHIBITION 0.5 hr / % FEEDING INHIBITION 0.5 hr (values marked *): 0.5 hr feeding period; for % FEEDING INHIBITION 3 hr / % FEEDING INHIBITION 3 hr (values marked *): 3 hr feeding period; for % FEEDING INHIBITION 3 hr: IA means inactive; for % FEEDING INHIBITION 3 hr (values marked *) / % FEEDING INHIBITION 0.5 hr (values marked *): 300 μg/kg, <10% inhibition at 30 μg/kg
Description: The peptides of this invention have the ability to inhibit feeding activity in mammals. As a result they have utility in the prevention and treatment of obesity.
Male Sprague-Dawley rats (weighing 300-350 g) are individually caged and maintained on a 12 hr. light, dark cycle and trained for at least 14 days to feed during a three hr period of the dark cycle but not the 21 hours preceding that three hr period. The day of the study, rats are dosed intraperitoneally with saline (controls) or test compound (dissolved in saline; usually at a concentration of 0.3 to 300 micrograms of test compound per kg of rat weight). Food is introduced 10 minutes after administration of saline or test compound. […] The % feeding inhibition for the 1/2 hr and 3 hr feeding periods obtained by administering a dose of 30 μg/kg of test compound is given in Table 2 for CCK-8 and various compounds of the invention. For example, the % feeding inhibition obtained with CCK-8 (first line of Table 2) was 70% for the 1/2 hr feeding period and 25% for the 3-hour period.

| SMILES | % FEEDING INHIBITION 0.5 hr [%] | % FEEDING INHIBITION 3 hr [%] | % FEEDING INHIBITION 3 hr (values marked *) [%] | % FEEDING INHIBITION 0.5 hr (values marked *) [%] |
| --- | --- | --- | --- | --- |
| CSCC[C@H](NC(=O)[C@H](Cc1ccc(OS(=O)(=O)O)cc1)NC(=O)[C@@H](N)CC(=O)O)C(=O)NCC(=O)N[C@@H](Cc1c[nH]c2ccccc12)C(=O)N[C@@H](CCSC)C(=O)N[C@@H](CC(=O)O)C(=O)N[C@@H](Cc1ccccc1)C(N)=O [CCK-8, Asp-Tyr(SO3 H)-Met-Gly-Trp-Met-Asp-Phe-NH2, reference compound] | 70 | 25 | – | – |
| CSCC[C@H](NC(=O)[C@H](Cc1ccc(OS(=O)(=O)O)cc1)NC=O)C(=O)NCC(=O)N[C@@H](Cc1c[nH]c2ccccc12)C(=O)N[C@@H](CCSC)C(=O)N[C@@H](CC(=O)O)C(=O)N[C@@H](Cc1ccccc1)C(N)=O [For-Tyr(SO3 H)-Met-Gly-Trp-Met-Asp-Phe-NH2] (HELM PEPTIDE1{[O=C[*:2]].[O=C([C@H](Cc1ccc(OS(=O)(=O)O)cc1)N[*:1])[*:2]].M.G.W.M.D.F.[am]}$$$$V2.0) | 100 | 66 | – | – |
| CSCC[C@H](NC(=O)[C@H](Cc1ccc(OS(=O)(=O)O)cc1)NC(=O)[C@@H](N)CC(=O)O)C(=O)NCC(=O)N[C@@H](Cc1c[nH]c2ccccc12)C(=O)N[C@@H](CCSC)C(=O)N[C@@H](CC(=O)O)C(=O)N[C@@H](Cc1ccc(Cl)cc1)C(N)=O [H-As-Tyr(SO3 H)-Met-Gly-Trp-Met-Asp-Phe(4-Cl)-NH2] | 54 | – | 28 | – |
| CSCC[C@H](NC(=O)[C@H](Cc1c[nH]c2ccccc12)NC(=O)CNC(=O)[C@@H](CCSC)NC(=O)[C@H](Cc1ccc(OS(=O)(=O)O)cc1)NC(=O)[C@@H](N)CC(=O)O)C(=O)N[C@@H](CC(=O)O)C(=O)N[C@@H](Cc1ccccc1)C(N)=O [H-Asp-Tyr(SO3 H)-DMet-Gly-Trp-Met-Asp-Phe-NH3] | 17 | – | – | – |
| CC[C@H](C)[C@H](NC(=O)[C@H](Cc1ccc(OS(=O)(=O)O)cc1)NC(=O)[C@@H](N)CC(=O)O)C(=O)NCC(=O)N[C@@H](Cc1c[nH]c2ccccc12)C(=O)N[C@H](C(=O)N[C@@H](CC(=O)O)C(=O)N[C@@H](Cc1ccccc1)C(N)=O)[C@@H](C)CC [H-Asp-Tyr(SO3 H)-Ile-Gly-Trp-Ile-Asp-Phe-NH2] (HELM PEPTIDE1{D.[O=C([C@H](Cc1ccc(OS(=O)(=O)O)cc1)N[*:1])[*:2]].I.G.W.I.D.F.[am]}$$$$V2.0) | 85 | 20 | – | – |
| CC(C)C[C@H](NC(=O)[C@H](Cc1ccc(OS(=O)(=O)O)cc1)NC(=O)[C@@H](N)CC(=O)O)C(=O)NCC(=O)N[C@@H](Cc1c[nH]c2ccccc12)C(=O)N[C@@H](CC(C)C)C(=O)N[C@@H](CC(=O)O)C(=O)N[C@@H](Cc1ccccc1)C(N)=O [H-Asp-Tyr(SO3 H)-Leu-Gly-Trp-Leu-Asp-Phe-NH2] | 89 | 24 | – | – |
| NCCCC[C@H](NC(=O)[C@H](Cc1ccc(OS(=O)(=O)O)cc1)NC(=O)[C@@H](N)CC(=O)O)C(=O)NCC(=O)N[C@@H](Cc1c[nH]c2ccccc12)C(=O)N[C@@H](CCCCN)C(=O)N[C@@H](CC(=O)O)C(=O)N[C@@H](Cc1ccccc1)C(N)=O [H-Asp-Tyr(SO3 H)-Lys-Gly-Trp-Lys-Asp-Phe-NH2] (HELM PEPTIDE1{D.[O=C([C@H](Cc1ccc(OS(=O)(=O)O)cc1)N[*:1])[*:2]].K.G.W.K.D.F.[am]}$$$$V2.0) | – | – | – | 45 |
| CSCC[C@H](NC(=O)[C@H](Cc1c[nH]c2ccccc12)NC(=O)[C@@H](C)NC(=O)[C@H](CCSC)NC(=O)[C@H](Cc1ccc(OS(=O)(=O)O)cc1)NC(=O)[C@@H](N)CC(=O)O)C(=O)N[C@@H](CC(=O)O)C(=O)N[C@@H](Cc1ccccc1)C(N)=O [H-Asp-Tyr(SO3 H)-Met-DAla-Trp-Met-Asp-Phe-NH2] (HELM PEPTIDE1{D.[O=C([C@H](Cc1ccc(OS(=O)(=O)O)cc1)N[*:1])[*:2]].M.[dA].W.M.D.F.[am]}$$$$V2.0) | 16 | – | 18 | – |
| CSCC[C@H](NC(=O)[C@H](Cc1ccc(OS(=O)(=O)O)cc1)NC(=O)[C@@H](N)CC(=O)O)C(=O)NCC(=O)N[C@H](Cc1c[nH]c2ccccc12)C(=O)N[C@@H](CCSC)C(=O)N[C@@H](CC(=O)O)C(=O)N[C@@H](Cc1ccccc1)C(N)=O [H-Asp-Tyr(SO3 H)-Met-Gly-DTrp-Met-Asp-Phe-NH2] | – | – | – | 42 |
| CSCC[C@H](NC(=O)[C@H](Cc1ccc(OS(=O)(=O)O)cc1)NC(=O)[C@@H](N)CC(=O)O)C(=O)NCC(=O)N[C@@H](Cc1c[nH]c2ccccc12)C(=O)N[C@H](CCSC)C(=O)N[C@@H](CC(=O)O)C(=O)N[C@@H](Cc1ccccc1)C(N)=O [H-Asp-Tyr(SO3 H)-Met-Gly-Trp-DMet-Asp-Phe-NH2] | – | – | – | 30 |
| CSCC[C@H](NC(=O)[C@H](Cc1ccc(OS(=O)(=O)O)cc1)NC(=O)[C@@H](N)CC(=O)O)C(=O)NCC(=O)N[C@@H](Cc1c[nH]c2ccccc12)C(=O)N[C@@H](CCSC)C(=O)N[C@@H](CC(N)=O)C(=O)N[C@@H](Cc1ccccc1)C(N)=O [H-Asp-Tyr(SO3 H)-Met-Gly-Trp-Met-Asn-Phe-NH2] (HELM PEPTIDE1{D.[O=C([C@H](Cc1ccc(OS(=O)(=O)O)cc1)N[*:1])[*:2]].M.G.W.M.N.F.[am]}$$$$V2.0) | – | – | – | 43 |
| CSCC[C@H](NC(=O)[C@H](Cc1ccc(OS(=O)(=O)O)cc1)NC(=O)[C@@H](N)CC(=O)O)C(=O)NCC(=O)N[C@@H](Cc1c[nH]c2ccccc12)C(=O)N[C@@H](CCSC)C(=O)N[C@@H](CC(=O)O)C(=O)N[C@@H](Cc1ccc(C)cc1)C(N)=O [H-Asp-Tyr(SO3 H)-Met-Gly-Trp-Met-Asp-Phe(4-Me)-NH2] | 57 | 18 | – | – |
| CSCC[C@H](NC(=O)[C@H](Cc1ccc(OS(=O)(=O)O)cc1)NC(=O)[C@@H](N)CC(=O)O)C(=O)NCC(=O)N[C@@H](Cc1c[nH]c2ccccc12)C(=O)N[C@@H](CCSC)C(=O)N[C@@H](CC(=O)O)C(=O)N[C@@H](Cc1ccc(N)cc1)C(N)=O [H-Asp-Tyr(SO3 H)-Met-Gly-Trp-Met-Asp-Phe(4-NH2)-NH2] | 27 | – | – | – |
| CSCC[C@H](NC(=O)[C@H](Cc1ccc(OS(=O)(=O)O)cc1)NC(=O)[C@@H](N)CC(=O)O)C(=O)NCC(=O)N[C@@H](Cc1c[nH]c2ccccc12)C(=O)N[C@@H](CCSC)C(=O)N[C@@H](CC(=O)O)C(=O)N[C@@H](Cc1ccc([N+](=O)[O-])cc1)C(N)=O [H-Asp-Tyr(SO3 H)-Met-Gly-Trp-Met-Asp-Phe(4-NO2)-NH2] | 43 | 17 | – | – |
| CCNC(=O)[C@H](Cc1ccccc1)NC(=O)[C@H](CC(=O)O)NC(=O)[C@H](CCSC)NC(=O)[C@H](Cc1c[nH]c2ccccc12)NC(=O)CNC(=O)[C@H](CCSC)NC(=O)[C@H](Cc1ccc(OS(=O)(=O)O)cc1)NC(=O)[C@@H](N)CC(=O)O [H-Asp-Tyr(SO3 H)-Met-Gly-Trp-Met-Asp-Phe-NHEt] | 16 | – | – | – |
| COc1ccc(C[C@H](NC(=O)[C@H](CC(=O)O)NC(=O)[C@H](CCSC)NC(=O)[C@H](Cc2c[nH]c3ccccc23)NC(=O)CNC(=O)[C@H](CCSC)NC(=O)[C@H](Cc2ccc(OS(=O)(=O)O)cc2)NC(=O)[C@@H](N)CC(=O)O)C(N)=O)cc1 [H-Asp-Tyr(SO3 H)-Met-Gly-Trp-Met-Asp-Tyr(Me)-NH2] (H-D[sY]MGWMDY(Me)-NH2) | – | – | – | 72 |
